Measured values taken from US10227560B2, “Biomimetic support for three-dimensional cell culturing, method for manufacturing same, and use thereof” (PUSAN NATIONAL UNIVERSITY INDUSTRY-UNIVERSITY COOPERATION …, priority 2014, dated 2019).
Like-named read-outs stand apart in the source and are kept apart here.

What was measured:
CREC cells = conditions: 18 to 24 hours
Procedure: The cells of Reference Example 1 were dispensed in a 96-well plate at a concentration of 1×10^4 cells/well for R182 and A2780 cells together with 0.1 mL of 10% FBS containing cell medium, and a concentration of 1×10^5 cells/well for R182 and A2780 cells, and the cells were cultured for 24 hours and then cultured for 12-16 hours in the absence of FBS.

[1] = test system: mouse T cell lymphoma cells (EL4); conditions: 18 to 24 hours
Procedure: (§1) The cytotoxicity assay was performed by the conventional method [H. Lee et al., Regul. Pept. (2008), 147, 72-81]. The cells of Reference Example 1 were dispensed in a 96-well plate at a concentration of 1×10^4 cells/well for R182 and A2780 cells together with 0.1 mL of 10% FBS containing cell medium, and a concentration of 1×10^5 cells/well for […] the cells were cultured for 24 hours and then cultured for 12-16 hours in the absence of FBS.
(§2) The cultured cells were treated with various concentrations of calcium chloride (CaCl2, Sigma-Aldrich) at concentrations of 10, 50, 100, 200 and 300 mM and cultured for 18 to 24 hours to perform WST-1 assay (EZ-Cytox Cell Viability Assay kit, Daeillab Service, Seoul, Korea) for cell cytotoxicity assay.
(§3) WST-1 reagent of 10 μL was added to each well and incubated for 2 hours in a humidified incubator at 37° C. and 5% CO2 and the absorbance was measured at 450 nm using a microplate reader (Tecan, M, Switzerland) to calculate the percent growth rate.

[2] = test system: human ovarian cancer cell R182
Procedure: as §1, §2, §3

[3] = test system: human ovarian cancer cells A2780
Procedure: as §1, §2, §3

[4] = test system: human ovarian cancer cell A2780; assay: cells; conditions: for viability at 0.5 µM: A2780, 24 h
Procedure: In the case of A2780 cells, 0.125 wt % agarose-7.5 wt % marine collagen-1 wt % alginate composite hydrogel support was prepared in the same manner as in Example 9, the cells were added to 96-well plate to induce the gelation at 4° C. for 5-10 minutes, and then cultured in the medium. In addition, the conventional two-dimensional cell culture was also performed as a control for three-dimensional cell culture.
(§5) In order to perform a sensitivity assay for an anticancer agent, EL4 and human ovarian cancer cell A2780 were cultured in an agarose-marine collagen-alginate composite hydrogel support in a two-dimensional and three-dimensional environment and an efficacy test for an anticancer agent was performed. EL4 cells cultured in two-dimensional culture conditions and EL4 cells cultured three-dimensionally in an agarose-marine collagen-alginate composite hydrogel support were treated with 5 μM doxorubicin (5927, cell signaling) and 100 μM resveratrol and the human ovarian cancer cell A2780 was treated with paclitaxel at a concentration of 0.5 μM for 24 hours, and then with WST-1 reagent, and absorbance was measured at 450 nm by a microplate reader to calculate percent growth rate.
In addition, 10 and 20 μM paclitaxel, and 30 and 50 μM curcumin were added to A2780 cells cultured in two-dimensional condition and A2780 cells cultured three-dimensionally for 7 days in agarose-marine collagen-alginate composite hydrogel supports, and the control group was treated with DMSO at the same concentration as the experimental group. The WST-1 reagent was then treated and the absorbance at 450 nm was measured by a microplate reader to calculate the percentage growth rate.

EL4 cells = assay: cells; conditions: Mus musculus
Procedure: In the case of EL4 cells, 0.125 wt % agarose-10 wt % marine collagen-1 wt % alginate composite hydrogel support was prepared in the same manner as in Example 9, and cells were added, and the mixture liquid was added to a 1 mL syringe with 80 μL to induce the gelation at 4° C. for 5-10 minutes, and then cultured in a 48-well plate.
as §5

[5] = test system: human non-small cell lung cancer (NCI-H1703) cells; assay: Anticancer drug susceptibility, WST-1 cell viability, 2D culture vs 3D culture on Fc 4%-Sc 50% fish collagen/PCL nanofiber support; assay type: cell-based; conditions: 3 μM doxorubicin, read-out: cell viability as compared with the control group
Procedure: (§4) First, an Fc 4%-Sc 50% fish collagen/PCL nanofiber support prepared in the same manner as in Example 1, was placed in a 96-well plate and NCI-H1703 and DU-145 cells were inoculated at a concentration of 5×10^4 cells/well. […] The results are expressed as mean±standard deviation (SD) for each analysis. Statistical analysis was performed using a two-tailed t-test and statistical significance was evaluated based on P<0.05.

[6] = test system: prostate cancer cell line DU-145; assay: as above; assay type: cell-based; conditions: Homo sapiens, 3 μM paclitaxel, read-out: cell viability as compared with the control group
Procedure: as §4

[7] = EL4, read-out: cell viability compared to the control group
[8] = EL4, read-out: viability as compared with the control group

For `[Ca+2].[Cl-].[Cl-]` [CaCl2, calcium chloride], the “dose-dependent cytotoxic effect (WST-1, percent growth rate)” value (CREC cells; 10 mM) was 81.1%, the “dose-dependent cytotoxic effect (WST-1, percent growth rate)” value (CREC cells; 50 mM) was 36.8% and the “dose-dependent cytotoxic effect (WST-1, percent growth rate)” value (CREC cells; 100 mM) was 23.0%. For the same compound, the “dose-dependent cytotoxic effect (WST-1, percent growth rate)” value (CREC cells; 200 mM) was 9.9%, the “dose-dependent cytotoxic effect (WST-1, percent growth rate)” value (CREC cells; 300 mM) was 10.3% and the “dose-dependent cytotoxic effect (WST-1, percent growth rate)” value ([1]; 10 mM) was 101.3%. The “dose-dependent cytotoxic effect (WST-1, percent growth rate)” value ([1]; 50 mM) was 59.2%, the “dose-dependent cytotoxic effect (WST-1, percent growth rate)” value ([1]; 100 mM) was 25.4% and the “dose-dependent cytotoxic effect (WST-1, percent growth rate)” value ([1]; 200 mM) was 11.2%. The “dose-dependent cytotoxic effect (WST-1, percent growth rate)” value ([1]; 300 mM) was 9.7%, the “cytotoxic effect (WST-1, percent growth rate)” value ([2]; 50 mM) was 34.1% and the “cytotoxic effect (WST-1, percent growth rate)” value ([2]; 100 mM) was 26.4%. The “cytotoxic effect (WST-1, percent growth rate)” value ([2]; 150 mM) was 21.1%, the “cytotoxic effect (WST-1, percent growth rate)” value ([2]; 200 mM) was 21.4% and the “cytotoxic effect (WST-1, percent growth rate)” value ([2]; 250 mM) was 24.9%. The “cytotoxic effect (WST-1, percent growth rate)” value ([2]; 300 mM) was 25.6%, the “dose-dependent cytotoxic effect (WST-1, percent growth rate)” value ([3]; 50 mM) was 74.9% and the “dose-dependent cytotoxic effect (WST-1, percent growth rate)” value ([3]; 100 mM) was 65.9%. For the same compound, the “dose-dependent cytotoxic effect (WST-1, percent growth rate)” value ([3]; 150 mM) was 41.5%, the “dose-dependent cytotoxic effect (WST-1, percent growth rate)” value ([3]; 200 mM) was 37.9% and the “dose-dependent cytotoxic effect (WST-1, percent growth rate)” value ([3]; 250 mM) was 39.5%. The “dose-dependent cytotoxic effect (WST-1, percent growth rate)” value ([3]; 300 mM) was 43.7%.
`COc1cc(/C=C/C(=O)CC(=O)/C=C/c2ccc(O)c(OC)c2)ccc1O` [curcumin] was tested, and the viability at 30 µM ([4]; A2780, read-out: cell viability, 30 μM curcumin, second pair of values, printed again as two-dimensional environment) was 95%, the viability at 30 µM ([4]; A2780, read-out: cell viability, 30 μM curcumin, two-dimensional environment) was 42.5% and the viability at 50 µM ([4]; A2780, read-out: cell viability, 50 μM curcumin, second pair of values, printed again as two-dimensional environment) was 82.4%. The viability at 50 µM ([4]; A2780, read-out: cell viability, 50 μM curcumin, two-dimensional environment) was 36.7%.
Compound `COc1cccc2c1C(=O)c1c(O)c3c(c(O)c1C2=O)C[C@@](O)(C(=O)CO)C[C@@H]3O[C@H]1C[C@H](N)[C@H](O)[C@H](C)O1` [doxorubicin] has a viability at 5 µM (EL4 cells; [7]) of 71.4%, a viability at 5 µM (EL4 cells; [8]) of 58.6% and a viability at 3 µM ([5]; NCI-H1703, 24 h, 24 hours, three-dimensional environment (Fc 4%-Sc 50% support)) of 94.5%. It also gave a viability at 3 µM ([5]; NCI-H1703, 24 h, 24 hours, two-dimensional environment) of 55.1%, a viability at 3 µM ([5]; NCI-H1703, 48 h, 48 hours, three-dimensional environment (Fc 4%-Sc 50% support)) of 95.7% and a viability at 3 µM ([5]; NCI-H1703, 48 h, 48 hours, two-dimensional environment) of 40.8%.
`CC(=O)O[C@H]1C(=O)[C@@]2(C)[C@H]([C@H](OC(=O)c3ccccc3)[C@]3(O)C[C@H](OC(=O)[C@H](O)[C@@H](NC(=O)c4ccccc4)c4ccccc4)C(C)=C1C3(C)C)[C@]1(OC(C)=O)CO[C@@H]1C[C@@H]2O` [paclitaxel] was tested, and the viability at 10 µM ([4]; A2780, 10 μM paclitaxel, two-dimensional environment) was 12.3%, the viability at 20 µM ([4]; A2780, 20 μM paclitaxel, two-dimensional environment) was 6.4% and the viability at 0.5 µM ([4]; read-out: cell viability, 0.5 μM paclitaxel, 24 hours, three-dimensional environment (hydrogel support)) was 94.2%. The viability at 0.5 µM ([4]; read-out: viability as compared with the control group, 0.5 μM paclitaxel, 24 hours, two-dimensional environment) was 60.9%, the viability at 10 µM ([4]; A2780, 168 h, 10 μM paclitaxel, three-dimensional environment (cultured 7 days in hydrogel support)) was 40.2% and the viability at 20 µM ([4]; A2780, 168 h, 20 μM paclitaxel, three-dimensional environment (cultured 7 days in hydrogel support)) was 51.4%. For the same compound, the viability at 3 µM ([6]; DU-145, 24 h, 24 hours, three-dimensional environment (Fc 4%-Sc 50% support)) was 93.5%, the viability at 3 µM ([6]; DU-145, 24 h, 24 hours, two-dimensional environment) was 50.2% and the viability at 3 µM ([6]; DU-145, 48 h, 48 hours, three-dimensional environment (Fc 4%-Sc 50% support)) was 64.2%. For the same compound, the viability at 3 µM ([6]; DU-145, 48 h, 48 hours, two-dimensional environment) was 14.6%.
For `Oc1ccc(C=Cc2cc(O)cc(O)c2)cc1` [resveratrol], the viability at 100 µM (EL4 cells; [7]) was 93.5% and the viability at 100 µM (EL4 cells; [8]) was 50.2%.
